Source: the NIST ThermoML archive (doi:10.1021/je300853z)
± gives the expanded uncertainty stated by the source.

Tests used:
[1] = molar heat capacity at constant pressure; xn = mol fraction of the nth substance listed; conditions: 101 kPa, Liquid, Small sample (50 mg) DSC
[2] = excess molar enthalpy (molar enthalpy of mixing); xn = mol fraction of the nth substance listed; conditions: 101 kPa, Liquid, Calvet calorimetry

CCCCCCCC[n+]1ccc2ccccc2c1.N#C[S-] [2-octylisoquinolinium thiocyanate] + O
Conditions	excess molar enthalpy [kcal/mol]	molar heat capacity at constant pressure [J/K/mol]
[1], 278.15 K, x1 = 0.3977	–	248 ± 5
[1], 278.15 K, x1 = 0.5237	–	295 ± 6
[1], 278.15 K, x1 = 0.5945	–	334 ± 7
[1], 278.15 K, x1 = 0.7214	–	386 ± 8
[1], 278.15 K, x1 = 0.8097	–	423 ± 8
[1], 278.15 K, x1 = 0.8935	–	467 ± 9
[1], 283.15 K, x1 = 0.3977	–	250 ± 5
[1], 283.15 K, x1 = 0.5237	–	304 ± 6
[1], 283.15 K, x1 = 0.5945	–	337 ± 7
[1], 283.15 K, x1 = 0.7214	–	388 ± 8
[1], 283.15 K, x1 = 0.8097	–	426 ± 9
[1], 283.15 K, x1 = 0.8935	–	470 ± 9
[1], 288.15 K, x1 = 0.3977	–	251 ± 5
[1], 288.15 K, x1 = 0.5237	–	306 ± 6
[1], 288.15 K, x1 = 0.5945	–	340 ± 7
[1], 288.15 K, x1 = 0.7214	–	391 ± 8
[1], 288.15 K, x1 = 0.8097	–	429 ± 9
[1], 288.15 K, x1 = 0.8935	–	474 ± 9
[1], 293.15 K, x1 = 0.3977	–	253 ± 5
[1], 293.15 K, x1 = 0.5237	–	309 ± 6
[1], 293.15 K, x1 = 0.5945	–	342 ± 7
[1], 293.15 K, x1 = 0.7214	–	393 ± 8
[1], 293.15 K, x1 = 0.8097	–	432 ± 9
[1], 293.15 K, x1 = 0.8935	–	476 ± 10
[1], 298.15 K, x1 = 0.3977	–	255 ± 5
[1], 298.15 K, x1 = 0.5237	–	311 ± 6
[1], 298.15 K, x1 = 0.5945	–	344 ± 7
[1], 298.15 K, x1 = 0.7214	–	396 ± 8
[1], 298.15 K, x1 = 0.8097	–	434 ± 9
[1], 298.15 K, x1 = 0.8935	–	479 ± 10
[1], 303.15 K, x1 = 0.3977	–	257 ± 5
[1], 303.15 K, x1 = 0.5237	–	313 ± 6
[1], 303.15 K, x1 = 0.5945	–	347 ± 7
[1], 303.15 K, x1 = 0.7214	–	398 ± 8
[1], 303.15 K, x1 = 0.8097	–	437 ± 9
[1], 303.15 K, x1 = 0.8935	–	482 ± 10
[1], 308.15 K, x1 = 0.3977	–	258 ± 5
[1], 308.15 K, x1 = 0.5237	–	315 ± 6
[1], 308.15 K, x1 = 0.5945	–	349 ± 7
[1], 308.15 K, x1 = 0.7214	–	400 ± 8
[1], 308.15 K, x1 = 0.8097	–	439 ± 9
[1], 308.15 K, x1 = 0.8935	–	484 ± 10
[1], 313.15 K, x1 = 0.3977	–	260 ± 5
[1], 313.15 K, x1 = 0.5237	–	316 ± 6
[1], 313.15 K, x1 = 0.5945	–	351 ± 7
[1], 313.15 K, x1 = 0.7214	–	402 ± 8
[1], 313.15 K, x1 = 0.8097	–	441 ± 9
[1], 313.15 K, x1 = 0.8935	–	487 ± 10
[1], 318.15 K, x1 = 0.3977	–	261 ± 5
[1], 318.15 K, x1 = 0.5237	–	318 ± 6
[1], 318.15 K, x1 = 0.5945	–	353 ± 7
[1], 318.15 K, x1 = 0.7214	–	404 ± 8
[1], 318.15 K, x1 = 0.8097	–	441 ± 9
[1], 318.15 K, x1 = 0.8935	–	490 ± 10
[1], 323.15 K, x1 = 0.3977	–	261 ± 5
[1], 323.15 K, x1 = 0.5237	–	319 ± 6
[1], 323.15 K, x1 = 0.5945	–	355 ± 7
[1], 323.15 K, x1 = 0.7214	–	405 ± 8
[1], 323.15 K, x1 = 0.8097	–	442 ± 9
[1], 323.15 K, x1 = 0.8935	–	492 ± 10
[1], 328.15 K, x1 = 0.3977	–	262 ± 5
[1], 328.15 K, x1 = 0.5237	–	320 ± 6
[1], 328.15 K, x1 = 0.5945	–	357 ± 7
[1], 328.15 K, x1 = 0.7214	–	406 ± 8
[1], 328.15 K, x1 = 0.8097	–	443 ± 9
[1], 328.15 K, x1 = 0.8935	–	495 ± 10
[1], 333.15 K, x1 = 0.3977	–	263 ± 5
[1], 333.15 K, x1 = 0.5237	–	321 ± 6
[1], 333.15 K, x1 = 0.5945	–	358 ± 7
[1], 333.15 K, x1 = 0.7214	–	408 ± 8
[1], 333.15 K, x1 = 0.8097	–	443 ± 9
[1], 333.15 K, x1 = 0.8935	–	497 ± 10
[1], 338.15 K, x1 = 0.3977	–	263 ± 5
[1], 338.15 K, x1 = 0.5237	–	322 ± 6
[1], 338.15 K, x1 = 0.5945	–	360 ± 7
[1], 338.15 K, x1 = 0.7214	–	408 ± 8
[1], 338.15 K, x1 = 0.8097	–	442 ± 9
[1], 338.15 K, x1 = 0.8935	–	500 ± 10
[2], 298.15 K, x1 = 0.2433	0.0308 ± 0.00043	–
[2], 298.15 K, x1 = 0.258	0.0292 ± 0.000406	–
[2], 298.15 K, x1 = 0.2745	0.0249 ± 0.000382	–
[2], 298.15 K, x1 = 0.2933	0.0158 ± 0.000311	–
[2], 298.15 K, x1 = 0.3149	0.00142 ± 0.000201	–
[2], 298.15 K, x1 = 0.3361	-0.0125 ± 0.000287	–
[2], 298.15 K, x1 = 0.3603	-0.0289 ± 0.000406	–
[2], 298.15 K, x1 = 0.3833	-0.0433 ± 0.000526	–
[2], 298.15 K, x1 = 0.4094	-0.0581 ± 0.000645	–
[2], 298.15 K, x1 = 0.4329	-0.0703 ± 0.000741	–
[2], 298.15 K, x1 = 0.4593	-0.08198 ± 0.000813	–
[2], 298.15 K, x1 = 0.4892	-0.09345 ± 0.000908	–
[2], 298.15 K, x1 = 0.5141	-0.1009 ± 0.00098	–
[2], 298.15 K, x1 = 0.5417	-0.1071 ± 0.00103	–
[2], 298.15 K, x1 = 0.5724	-0.1116 ± 0.00105	–
[2], 298.15 K, x1 = 0.6068	-0.1138 ± 0.00108	–
[2], 298.15 K, x1 = 0.6457	-0.113 ± 0.00108	–
[2], 298.15 K, x1 = 0.6742	-0.1107 ± 0.00105	–
[2], 298.15 K, x1 = 0.7053	-0.1052 ± 0.001	–
[2], 298.15 K, x1 = 0.7395	-0.09728 ± 0.000956	–
[2], 298.15 K, x1 = 0.7771	-0.08676 ± 0.00086	–
[2], 298.15 K, x1 = 0.7969	-0.0805 ± 0.000813	–
[2], 298.15 K, x1 = 0.8176	-0.0727 ± 0.000741	–
[2], 298.15 K, x1 = 0.8395	-0.0641 ± 0.000693	–
[2], 298.15 K, x1 = 0.8626	-0.0543 ± 0.000621	–
[2], 298.15 K, x1 = 0.887	-0.0445 ± 0.000526	–
[2], 298.15 K, x1 = 0.9128	-0.0332 ± 0.000454	–
[2], 298.15 K, x1 = 0.9401	-0.0211 ± 0.000359	–
[2], 298.15 K, x1 = 0.9691	-0.00755 ± 0.000263	–
[2], 303.15 K, x1 = 0.2439	0.0421 ± 0.000502	–
[2], 303.15 K, x1 = 0.2588	0.0373 ± 0.000478	–
[2], 303.15 K, x1 = 0.2756	0.0294 ± 0.000406	–
[2], 303.15 K, x1 = 0.2947	0.0165 ± 0.000311	–
[2], 303.15 K, x1 = 0.3133	0.00311 ± 0.000213	–
[2], 303.15 K, x1 = 0.3344	-0.0118 ± 0.000287	–
[2], 303.15 K, x1 = 0.3586	-0.0282 ± 0.000406	–
[2], 303.15 K, x1 = 0.3815	-0.043 ± 0.000526	–
[2], 303.15 K, x1 = 0.4076	-0.0583 ± 0.000645	–
[2], 303.15 K, x1 = 0.4311	-0.0707 ± 0.000741	–
[2], 303.15 K, x1 = 0.4575	-0.0829 ± 0.000837	–
[2], 303.15 K, x1 = 0.4873	-0.09441 ± 0.000932	–
[2], 303.15 K, x1 = 0.5122	-0.1021 ± 0.00098	–
[2], 303.15 K, x1 = 0.5398	-0.1087 ± 0.00103	–
[2], 303.15 K, x1 = 0.5706	-0.1138 ± 0.00108	–
[2], 303.15 K, x1 = 0.605	-0.1166 ± 0.0011	–
[2], 303.15 K, x1 = 0.644	-0.1169 ± 0.0011	–
[2], 303.15 K, x1 = 0.6725	-0.1147 ± 0.00108	–
[2], 303.15 K, x1 = 0.7038	-0.1107 ± 0.00105	–
[2], 303.15 K, x1 = 0.7381	-0.104 ± 0.001	–
[2], 303.15 K, x1 = 0.7758	-0.09393 ± 0.000908	–
[2], 303.15 K, x1 = 0.7957	-0.08795 ± 0.00086	–
[2], 303.15 K, x1 = 0.8165	-0.081 ± 0.000813	–
[2], 303.15 K, x1 = 0.8385	-0.0729 ± 0.000765	–
[2], 303.15 K, x1 = 0.8617	-0.0643 ± 0.000693	–
[2], 303.15 K, x1 = 0.8862	-0.055 ± 0.000621	–
[2], 303.15 K, x1 = 0.9122	-0.0435 ± 0.000526	–
[2], 303.15 K, x1 = 0.9397	-0.0304 ± 0.00043	–
[2], 303.15 K, x1 = 0.9689	-0.0157 ± 0.000311	–
[2], 308.15 K, x1 = 0.214	0.0641 ± 0.000693	–
[2], 308.15 K, x1 = 0.2281	0.0612 ± 0.000669	–
[2], 308.15 K, x1 = 0.2422	0.0562 ± 0.000621	–
[2], 308.15 K, x1 = 0.2581	0.0454 ± 0.000526	–
[2], 308.15 K, x1 = 0.2762	0.0311 ± 0.00043	–
[2], 308.15 K, x1 = 0.297	0.0144 ± 0.000311	–
[2], 308.15 K, x1 = 0.3176	-0.00142 ± 0.000201	–
[2], 308.15 K, x1 = 0.3411	-0.0193 ± 0.000335	–
[2], 308.15 K, x1 = 0.3636	-0.0349 ± 0.000454	–
[2], 308.15 K, x1 = 0.3892	-0.0516 ± 0.000574	–
[2], 308.15 K, x1 = 0.4124	-0.065 ± 0.000693	–
[2], 308.15 K, x1 = 0.4385	-0.0782 ± 0.000789	–
[2], 308.15 K, x1 = 0.4682	-0.0913 ± 0.000884	–
[2], 308.15 K, x1 = 0.493	-0.1001 ± 0.000956	–
[2], 308.15 K, x1 = 0.5207	-0.1083 ± 0.00103	–
[2], 308.15 K, x1 = 0.5517	-0.1147 ± 0.00108	–
[2], 308.15 K, x1 = 0.5866	-0.1193 ± 0.00112	–
[2], 308.15 K, x1 = 0.6262	-0.1207 ± 0.00112	–
[2], 308.15 K, x1 = 0.6554	-0.1195 ± 0.00112	–
[2], 308.15 K, x1 = 0.6876	-0.1164 ± 0.0011	–
[2], 308.15 K, x1 = 0.723	-0.1104 ± 0.00105	–
[2], 308.15 K, x1 = 0.7622	-0.1016 ± 0.00098	–
[2], 308.15 K, x1 = 0.7829	-0.09632 ± 0.000932	–
[2], 308.15 K, x1 = 0.8048	-0.08987 ± 0.000884	–
[2], 308.15 K, x1 = 0.8278	-0.0825 ± 0.000837	–
[2], 308.15 K, x1 = 0.8523	-0.0736 ± 0.000765	–
[2], 308.15 K, x1 = 0.8782	-0.0631 ± 0.000669	–
[2], 308.15 K, x1 = 0.9058	-0.0516 ± 0.000598	–
[2], 308.15 K, x1 = 0.9352	-0.039 ± 0.000502	–
[2], 308.15 K, x1 = 0.9665	-0.0244 ± 0.000382	–
